# Key:
# [1] = target: Death-associated protein kinase 1 (Homo sapiens) (UniProt P53355); assay: Inhibition of DAPK1 (unknown origin) at 100 nM
# [2] = target: Dual specificity tyrosine-phosphorylation-regulated kinase 1A (Homo sapiens) (UniProt Q13627); assay: Inhibition of DYRK1A (unknown origin) at 100 nM
# [3] = target: Casein kinase I isoform gamma-3 (Homo sapiens) (UniProt Q9Y6M4); assay: Inhibition of CK1gamma3 (unknown origin) at 100 nM
# [4] = Total AUC in rat at 5 mg/kg, po; type: ADME, organism-based; design: dose 5 mg/kg, time AUCmax, route oral; settings: in vivo
# [5] = target: G protein-coupled receptor kinase 3 (Homo sapiens) (UniProt P35626); assay: Inhibition of GRK3 (unknown origin) at 100 nM
# [6] = target: Serine/threonine-protein kinase MRCK beta (Homo sapiens) (UniProt Q9Y5S2); assay: Inhibition of MRCKbeta (unknown origin) at 100 nM
# [7] = target: STE20-like serine/threonine-protein kinase (Homo sapiens) (UniProt Q9H2G2); assay: Inhibition of SLK (unknown origin) at 100 nM
# Chain of STE20-like serine/threonine-protein kinase (Homo sapiens) (Q9H2G2 whole entry, looked up): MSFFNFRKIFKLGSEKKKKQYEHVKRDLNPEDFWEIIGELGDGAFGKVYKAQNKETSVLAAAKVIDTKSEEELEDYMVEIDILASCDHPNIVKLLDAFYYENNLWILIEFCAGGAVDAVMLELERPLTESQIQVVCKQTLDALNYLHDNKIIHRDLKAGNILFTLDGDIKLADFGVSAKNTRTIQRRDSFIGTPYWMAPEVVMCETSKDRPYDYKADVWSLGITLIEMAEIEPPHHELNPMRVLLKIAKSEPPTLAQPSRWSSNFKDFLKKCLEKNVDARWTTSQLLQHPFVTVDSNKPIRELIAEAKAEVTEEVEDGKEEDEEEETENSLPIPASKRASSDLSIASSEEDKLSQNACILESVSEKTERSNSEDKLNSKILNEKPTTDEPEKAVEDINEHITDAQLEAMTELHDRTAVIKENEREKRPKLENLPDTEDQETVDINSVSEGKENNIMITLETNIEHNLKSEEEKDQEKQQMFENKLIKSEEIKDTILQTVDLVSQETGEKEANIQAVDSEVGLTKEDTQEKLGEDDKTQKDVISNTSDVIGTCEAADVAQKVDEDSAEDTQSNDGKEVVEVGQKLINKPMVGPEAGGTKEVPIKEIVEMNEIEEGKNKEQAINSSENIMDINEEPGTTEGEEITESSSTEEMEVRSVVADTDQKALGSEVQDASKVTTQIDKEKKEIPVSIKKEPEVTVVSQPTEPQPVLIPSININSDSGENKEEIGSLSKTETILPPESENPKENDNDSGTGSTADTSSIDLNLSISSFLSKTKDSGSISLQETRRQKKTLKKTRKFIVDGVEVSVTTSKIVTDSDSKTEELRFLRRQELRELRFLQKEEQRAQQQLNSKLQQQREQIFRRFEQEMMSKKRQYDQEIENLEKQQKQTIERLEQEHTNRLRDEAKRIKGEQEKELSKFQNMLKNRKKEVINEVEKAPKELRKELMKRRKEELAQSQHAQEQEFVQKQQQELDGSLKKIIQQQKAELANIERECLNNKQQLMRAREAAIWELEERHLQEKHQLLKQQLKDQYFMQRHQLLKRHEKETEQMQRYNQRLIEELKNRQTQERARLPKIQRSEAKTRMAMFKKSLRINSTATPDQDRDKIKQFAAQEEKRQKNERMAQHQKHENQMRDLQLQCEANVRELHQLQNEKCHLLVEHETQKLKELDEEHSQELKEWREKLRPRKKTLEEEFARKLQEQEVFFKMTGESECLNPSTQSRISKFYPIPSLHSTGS
# [8] = target: Protein kinase C zeta type (Homo sapiens) (UniProt Q05513); assay: Inhibition of PKCzeta (unknown origin) at 100 nM
# [9] = target: Receptor tyrosine-protein kinase erbB-4 (Homo sapiens) (UniProt Q15303); assay: Inhibition of ERBB4 (unknown origin) at 100 nM
# [10] = species on record: Homo sapiens; assay: Inhibition of SRM (unknown origin) at 100 nM
# [11] = tested on: Platelet-derived growth factor receptor alpha (Homo sapiens), P16234 [D842V]; assay: Inhibition of PDGFRalpha D842V mutant (unknown origin) at 100 nM
# [12] = target: Tyrosine-protein kinase Fer (Homo sapiens) (UniProt P16591); assay: Inhibition of FER (unknown origin) at 100 nM
# [13] = target: Fibroblast growth factor receptor 3 (Homo sapiens) (UniProt P22607); assay: Inhibition of FGFR3 (unknown origin) at 100 nM
# [14] = target: Serine/threonine-protein kinase D2 (Homo sapiens) (UniProt Q9BZL6); assay: Inhibition of PKD2 (unknown origin) at 100 nM
# [15] = target: Tyrosine-protein kinase TXK (Homo sapiens) (UniProt P42681); assay: Inhibition of TXK (unknown origin) at 100 nM
# [16] = target: MAP kinase-interacting serine/threonine-protein kinase 2 (Homo sapiens) (UniProt Q9HBH9); assay: Inhibition of MKNK2 (unknown origin) at 100 nM
# [17] = target: Serine/threonine-protein kinase SIK2 (Homo sapiens) (UniProt Q9H0K1); assay: Inhibition of SIK2 (unknown origin) at 100 nM
# Chain of Serine/threonine-protein kinase SIK2 (Homo sapiens) (Q9H0K1 whole entry, looked up): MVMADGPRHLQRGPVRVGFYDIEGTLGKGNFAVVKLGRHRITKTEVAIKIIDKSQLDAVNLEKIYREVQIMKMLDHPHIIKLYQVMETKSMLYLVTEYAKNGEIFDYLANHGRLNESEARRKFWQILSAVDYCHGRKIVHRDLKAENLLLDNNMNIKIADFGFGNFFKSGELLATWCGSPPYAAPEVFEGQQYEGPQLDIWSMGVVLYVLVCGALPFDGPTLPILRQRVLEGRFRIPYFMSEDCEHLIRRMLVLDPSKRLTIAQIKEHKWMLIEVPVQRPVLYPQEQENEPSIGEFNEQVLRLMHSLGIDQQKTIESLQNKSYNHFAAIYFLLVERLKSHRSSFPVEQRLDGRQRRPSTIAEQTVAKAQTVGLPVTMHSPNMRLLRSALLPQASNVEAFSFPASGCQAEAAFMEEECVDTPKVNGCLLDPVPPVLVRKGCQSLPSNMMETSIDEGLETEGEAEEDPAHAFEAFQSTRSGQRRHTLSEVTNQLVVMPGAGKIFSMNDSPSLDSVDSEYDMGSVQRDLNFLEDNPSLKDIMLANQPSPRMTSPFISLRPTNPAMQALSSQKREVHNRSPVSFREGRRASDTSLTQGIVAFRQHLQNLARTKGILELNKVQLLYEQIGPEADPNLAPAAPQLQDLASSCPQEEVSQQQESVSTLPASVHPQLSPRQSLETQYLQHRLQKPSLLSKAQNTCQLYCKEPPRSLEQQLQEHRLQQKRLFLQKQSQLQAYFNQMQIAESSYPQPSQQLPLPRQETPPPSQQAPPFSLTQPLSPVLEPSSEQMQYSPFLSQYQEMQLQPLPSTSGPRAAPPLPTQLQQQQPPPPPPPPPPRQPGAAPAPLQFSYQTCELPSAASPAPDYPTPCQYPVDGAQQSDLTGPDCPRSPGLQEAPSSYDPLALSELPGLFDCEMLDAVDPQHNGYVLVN
# [18] = target: Protein kinase C theta type (Homo sapiens) (UniProt Q04759); assay: Inhibition of PKCtheta (unknown origin) at 100 nM
# [19] = target: Calcium/calmodulin-dependent protein kinase type II subunit delta (Homo sapiens) (UniProt Q13557); assay: Inhibition of CamKIIdelta (unknown origin) at 100 nM
# [20] = target: Serine/threonine-protein kinase PLK2 (Homo sapiens) (UniProt Q9NYY3); assay: Inhibition of PLK2 (unknown origin) at 100 nM
# [21] = target: Casein kinase I isoform gamma-2 (Homo sapiens) (UniProt P78368); assay: Inhibition of CK1gamma2 (unknown origin) at 100 nM
# [22] = target: Serine/threonine-protein kinase BRSK1 (Homo sapiens) (UniProt Q8TDC3); assay: Inhibition of BRSK1 (unknown origin) at 100 nM
# [23] = target: Calcium/calmodulin-dependent protein kinase type IV (Homo sapiens) (UniProt Q16566); assay: Inhibition of CamKIV (unknown origin) at 100 nM
# [24] = target: Calcium/calmodulin-dependent protein kinase type 1 (Homo sapiens) (UniProt Q14012); assay: Inhibition of CaMKI (unknown origin) at 100 nM
# [25] = target: MAP kinase-interacting serine/threonine-protein kinase 1 (Homo sapiens) (UniProt Q9BUB5); assay: Inhibition of MKNK1 (unknown origin) at 100 nM
# [26] = target: Ribosomal protein S6 kinase alpha-4 (Homo sapiens) (UniProt O75676); assay: Inhibition of MSK2 (unknown origin) at 100 nM
# [27] = target: Phosphatidylinositol 4-kinase beta (Homo sapiens) (UniProt Q9UBF8); assay: Inhibition of PI4Kb (unknown origin) at 100 nM
# Chain of Phosphatidylinositol 4-kinase beta (Homo sapiens) (Q9UBF8 2-816 limits assumed): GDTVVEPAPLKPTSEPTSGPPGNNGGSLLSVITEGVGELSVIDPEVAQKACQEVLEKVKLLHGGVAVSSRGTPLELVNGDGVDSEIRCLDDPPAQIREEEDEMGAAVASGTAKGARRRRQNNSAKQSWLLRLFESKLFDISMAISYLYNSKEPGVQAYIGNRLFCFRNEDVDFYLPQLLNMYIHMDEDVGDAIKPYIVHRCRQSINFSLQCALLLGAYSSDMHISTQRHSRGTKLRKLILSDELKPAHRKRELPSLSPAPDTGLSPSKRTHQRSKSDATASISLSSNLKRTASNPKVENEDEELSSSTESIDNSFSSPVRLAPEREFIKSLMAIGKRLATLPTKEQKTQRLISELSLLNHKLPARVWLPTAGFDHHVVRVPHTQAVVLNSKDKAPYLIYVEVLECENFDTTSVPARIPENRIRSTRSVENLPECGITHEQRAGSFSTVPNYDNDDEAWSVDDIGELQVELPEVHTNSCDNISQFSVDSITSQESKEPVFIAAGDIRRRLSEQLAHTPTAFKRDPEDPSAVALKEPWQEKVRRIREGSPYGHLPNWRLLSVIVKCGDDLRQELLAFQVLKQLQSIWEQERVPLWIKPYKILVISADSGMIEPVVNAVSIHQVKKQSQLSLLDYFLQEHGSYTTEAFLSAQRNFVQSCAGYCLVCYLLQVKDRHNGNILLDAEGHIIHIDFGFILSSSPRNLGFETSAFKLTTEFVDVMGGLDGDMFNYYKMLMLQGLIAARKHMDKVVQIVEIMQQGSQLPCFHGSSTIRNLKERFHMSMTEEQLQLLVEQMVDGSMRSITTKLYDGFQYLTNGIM
# [28] = target: Cyclin-dependent kinase 7/ cyclin H (Homo sapiens) (UniProt P51946+P50613); assay: Inhibition of CDK7/cyclinH (unknown origin) at 100 nM; type: protein-complex assay
# [29] = target: Tyrosine-protein kinase receptor UFO (Homo sapiens) (UniProt P30530); assay: Inhibition of AXL (unknown origin) at 100 nM
# [30] = target: Sphingosine kinase 1 (Homo sapiens) (UniProt Q9NYA1); assay: Inhibition of SPHK1 (unknown origin) at 100 nM
# [31] = target: Tyrosine-protein kinase Tec (Homo sapiens) (UniProt P42680); assay: Inhibition of TEC (unknown origin) at 100 nM
# [32] = target: Epithelial discoidin domain-containing receptor 1 (Homo sapiens) (UniProt Q08345); assay: Inhibition of DDR1 (unknown origin) at 100 nM
# [33] = target: TGF-beta receptor type-1 (Homo sapiens) (UniProt P36897); assay: Inhibition of TGFBR1 (unknown origin) at 100 nM
# [34] = target: Myosin light chain kinase, smooth muscle (Homo sapiens) (UniProt Q15746); assay: Inhibition of MYLK (unknown origin) at 100 nM
# [35] = target: Tyrosine-protein kinase Fgr (Homo sapiens) (UniProt P09769); assay: Inhibition of FGR (unknown origin) at 100 nM
# [36] = target: Glycogen synthase kinase-3 alpha (Homo sapiens) (UniProt P49840); assay: Inhibition of GSK3aplha (unknown origin) at 100 nM
# [37] = target: PAS domain-containing serine/threonine-protein kinase (Homo sapiens) (UniProt Q96RG2); assay: Inhibition of PASK (unknown origin) at 100 nM
# [38] = target: Proto-oncogene tyrosine-protein kinase Src (Homo sapiens) (UniProt P12931); assay: Inhibition of SRCN1 (unknown origin) at 100 nM
# [39] = target: Ephrin type-A receptor 8 (Homo sapiens) (UniProt P29322); assay: Inhibition of EPHA8 (unknown origin) at 100 nM
# [40] = tested on: Platelet-derived growth factor receptor alpha (Homo sapiens), P16234 [T674I]; assay: Inhibition of PDGFRalpha T674I mutant (unknown origin) at 100 nM
# [41] = target: LIM domain kinase 2 (Homo sapiens) (UniProt P53671); assay: Inhibition of LIMK2 (unknown origin) at 100 nM
# [42] = target: Macrophage-stimulating protein receptor (Homo sapiens) (UniProt Q04912); assay: Inhibition of RON (unknown origin) at 100 nM
# Chain of Macrophage-stimulating protein receptor (Homo sapiens) (Q04912 25-304 limits assumed): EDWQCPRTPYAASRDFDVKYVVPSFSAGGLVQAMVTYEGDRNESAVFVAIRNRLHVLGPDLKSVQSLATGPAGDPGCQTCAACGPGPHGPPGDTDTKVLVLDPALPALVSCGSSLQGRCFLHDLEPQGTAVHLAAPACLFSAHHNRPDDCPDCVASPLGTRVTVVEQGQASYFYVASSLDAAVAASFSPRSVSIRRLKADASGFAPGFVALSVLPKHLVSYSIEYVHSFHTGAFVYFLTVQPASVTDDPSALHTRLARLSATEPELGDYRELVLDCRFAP
# Chain of Macrophage-stimulating protein receptor (Homo sapiens) (Q04912 310-1400 limits assumed): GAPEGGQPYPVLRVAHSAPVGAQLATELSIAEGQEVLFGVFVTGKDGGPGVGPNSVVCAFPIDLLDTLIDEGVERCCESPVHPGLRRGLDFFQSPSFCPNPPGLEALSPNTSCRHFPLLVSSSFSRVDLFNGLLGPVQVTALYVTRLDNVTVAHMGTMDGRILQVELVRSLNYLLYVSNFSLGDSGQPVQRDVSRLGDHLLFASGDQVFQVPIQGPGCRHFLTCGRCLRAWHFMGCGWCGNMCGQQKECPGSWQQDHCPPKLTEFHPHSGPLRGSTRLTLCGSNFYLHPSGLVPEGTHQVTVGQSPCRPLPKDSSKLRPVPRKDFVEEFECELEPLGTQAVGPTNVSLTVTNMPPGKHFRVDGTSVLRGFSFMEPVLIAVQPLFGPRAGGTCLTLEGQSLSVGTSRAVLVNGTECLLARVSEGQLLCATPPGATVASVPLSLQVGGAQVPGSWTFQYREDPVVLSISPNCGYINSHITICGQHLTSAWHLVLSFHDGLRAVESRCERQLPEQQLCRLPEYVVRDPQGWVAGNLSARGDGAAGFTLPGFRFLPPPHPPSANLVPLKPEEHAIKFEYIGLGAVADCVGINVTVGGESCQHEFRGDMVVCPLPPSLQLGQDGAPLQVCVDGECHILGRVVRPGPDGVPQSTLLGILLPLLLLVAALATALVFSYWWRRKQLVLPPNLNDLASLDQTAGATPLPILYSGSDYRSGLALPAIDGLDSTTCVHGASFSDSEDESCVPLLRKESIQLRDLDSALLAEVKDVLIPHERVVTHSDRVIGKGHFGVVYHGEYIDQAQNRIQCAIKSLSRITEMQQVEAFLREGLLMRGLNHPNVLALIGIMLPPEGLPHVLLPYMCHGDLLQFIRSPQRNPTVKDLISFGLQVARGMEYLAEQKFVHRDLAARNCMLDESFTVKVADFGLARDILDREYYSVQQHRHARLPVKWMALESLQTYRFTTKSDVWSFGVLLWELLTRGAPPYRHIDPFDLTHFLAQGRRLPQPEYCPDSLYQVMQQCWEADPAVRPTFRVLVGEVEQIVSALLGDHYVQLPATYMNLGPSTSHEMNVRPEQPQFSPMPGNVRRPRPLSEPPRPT
# [43] = target: Calcium/calmodulin-dependent protein kinase kinase 1 (Homo sapiens) (UniProt Q8N5S9); assay: Inhibition of CaMKK1 (unknown origin) at 100 nM
# Chain of Casein kinase I isoform gamma-3 (Homo sapiens) (Q9Y6M4 whole entry, looked up, canonical isoform): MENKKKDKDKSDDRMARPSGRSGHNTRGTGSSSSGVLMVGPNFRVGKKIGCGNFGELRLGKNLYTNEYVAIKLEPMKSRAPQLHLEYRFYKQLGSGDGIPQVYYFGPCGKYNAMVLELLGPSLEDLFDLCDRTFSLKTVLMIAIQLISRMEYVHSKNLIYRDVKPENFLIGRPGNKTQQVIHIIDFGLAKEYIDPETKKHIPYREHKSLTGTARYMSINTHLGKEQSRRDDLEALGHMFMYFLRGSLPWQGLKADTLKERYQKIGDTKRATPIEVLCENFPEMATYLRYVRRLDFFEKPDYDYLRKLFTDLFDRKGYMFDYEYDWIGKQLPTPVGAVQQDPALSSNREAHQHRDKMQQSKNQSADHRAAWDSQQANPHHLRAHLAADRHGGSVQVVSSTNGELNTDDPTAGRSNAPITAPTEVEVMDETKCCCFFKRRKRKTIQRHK
smiles,measurement,setting,value
CC1(C)OCc2c(Nc3n[nH]c4ccccc34)nc(-c3cn[nH]c3)nc21,inhibition,[1],2.2%
same,inhibition,[2],9.6%
same,inhibition,[3],1.8%
same,AUC,[4],0.37 µM·h
same,inhibition,[5],-3.6%
same,inhibition,[6],-3.9%
same,inhibition,[7],66%
same,inhibition,[8],7.2%
same,inhibition,[9],89.9%
same,inhibition,[10],17.3%
same,inhibition,[11],77.3%
same,inhibition,[12],6.9%
same,inhibition,[13],18.4%
same,inhibition,[14],7.8%
same,inhibition,[15],61.5%
same,inhibition,[16],-2.3%
same,inhibition,[17],35.3%
same,inhibition,[18],4.5%
same,inhibition,[19],-4.2%
same,inhibition,[20],5.5%
same,inhibition,[21],3.5%
same,inhibition,[22],1.7%
same,inhibition,[23],15%
same,inhibition,[24],4.5%
same,inhibition,[25],2.3%
same,inhibition,[26],15.2%
same,inhibition,[27],10.1%
same,inhibition,[28],14.3%
same,inhibition,[29],-2.2%
same,inhibition,[30],0%
same,inhibition,[31],0.1%
same,inhibition,[32],52.6%
same,inhibition,[33],97.9%
same,inhibition,[34],2.8%
same,inhibition,[35],83.7%
same,inhibition,[36],30.8%
same,inhibition,[37],1.2%
same,inhibition,[38],47.2%
same,inhibition,[39],24.9%
same,inhibition,[40],9.5%
same,inhibition,[41],-2.1%
same,inhibition,[42],3.8%
same,inhibition,[43],7%

# Source: ChEMBL document CHEMBL3758169, “4-Aminoindazolyl-dihydrofuro[3,4-d]pyrimidines as non-covalent inhibitors of mutant epidermal growth factor receptor tyrosine kinase” (Bioorg Med Chem Lett, 2016)
